Results on 12 molecules are retold here after PubChem BioAssay (NCI).

Test systems include A549 NSCLC; KM12 colon; MDA-MB-231 breast; MDA-MB-435; NCI/ADR-RES ovarian; RPMI-8226 leukemia; SF-268 CNS; SF-295 CNS; SNB-19 CNS; SNB-75 CNS; U251 CNS.
Holding throughout (test): inhibition of tumour cell growth, NCI panel, 48 h

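All cell lines were grown in 96-well plates and treated with compound for 48 hours. Here, GI50 denotes the concentration required for 50% inhibition of growth. TGI denotes the concentration required for complete inhibition of growth.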 Where only a bound is given, the exact number is not on record here.

Regarding `Cc1cccc2sc(NC(=O)c3cc([N+](=O)[O-])ccc3Cl)nc12`, the TGI in the test on A549 NSCLC is 51.7 µM; with KM12 colon, 12.1 µM; in the test with MDA-MB-231 breast, over 100 µM; with MDA-MB-435, 12.6 µM; in the test on NCI/ADR-RES ovarian it was over 24.2 µM; in the test with RPMI-8226 leukemia, over 100 µM. The TGI with SF-268 CNS is over 33.7 µM; with SF-295 CNS, over 100 µM; in the test with SNB-19 CNS, over 100 µM; in the test on SNB-75 CNS, over 21.1 µM; in the test with U251 CNS it was 11.4 µM.

With `O=[N+]([O-])c1ccc(Cl)cc1C1ON=C(c2ccccc2)N1C12CC3CC(CC(C3)C1)C2` (stereo not drawn), the TGI in the test on A549 NSCLC, with MDA-MB-231 breast, with MDA-MB-435, in the test on NCI/ADR-RES ovarian, in the test with RPMI-8226 leukemia and with SF-268 CNS was over 100 µM throughout. Besides, the TGI with SF-295 CNS, in the test on SNB-19 CNS, in the test with SNB-75 CNS and in the test on U251 CNS was over 100 µM throughout.

Consider `O=C(O)c1c(CC(Cc2ccc3c(c2)CCCC3)C(=O)O)ccc2c1CCCC2` (stereo not drawn), for which the TGI in the test on A549 NSCLC, in the test with KM12 colon, with MDA-MB-231 breast, in the test on MDA-MB-435, with NCI/ADR-RES ovarian and with RPMI-8226 leukemia was over 100 µM throughout. Moreover, the TGI with SF-268 CNS, in the test with SF-295 CNS, in the test with SNB-19 CNS, in the test with SNB-75 CNS and in the test with U251 CNS was over 100 µM throughout.

Consider `O=C1CC(Br)c2c(Cl)sc(Cl)c21` (stereo not drawn), for which the TGI turned out to be 45.4 µM in the test with A549 NSCLC; 20.2 µM with KM12 colon; 22.7 µM in the test with MDA-MB-231 breast; 7.38 µM in the test on MDA-MB-435; 90.1 µM in the test on NCI/ADR-RES ovarian; 6.45 µM with RPMI-8226 leukemia. Further, the TGI in the test on SF-268 CNS came out at 26.6 µM; in the test on SF-295 CNS, 30.2 µM; in the test with SNB-19 CNS it was 37.8 µM; in the test with SNB-75 CNS, 30.5 µM; in the test with U251 CNS it was 10.4 µM.

Consider `COc1ccc(/C=C2\CN(C)CC3=C2OC(N)=C(C#N)C3c2ccc(OC)cc2)cc1` (stereo not drawn), for which the TGI in the test with A549 NSCLC is over 100 µM; in the test with KM12 colon, over 100 µM; in the test on MDA-MB-231 breast, over 100 µM; in the test on MDA-MB-435, over 71.2 µM; with NCI/ADR-RES ovarian it was over 100 µM; in the test with RPMI-8226 leukemia it was over 43.9 µM. Also, the TGI with SF-268 CNS, in the test on SF-295 CNS, in the test on SNB-19 CNS and with U251 CNS was over 100 µM each time.

Turning to `COC(=O)C(NC(=O)CNC(=O)CSc1nnc(COc2ccc(Cl)cc2)n1-c1ccccc1)C(C)C` (stereo not drawn), the TGI with A549 NSCLC was over 100 µM; in the test with KM12 colon it was 35.4 µM; with MDA-MB-231 breast, 36.5 µM; in the test on MDA-MB-435, 47.4 µM; in the test with NCI/ADR-RES ovarian, over 100 µM; in the test with RPMI-8226 leukemia, 46.7 µM. In addition, the TGI in the test on SF-268 CNS stood at 42.7 µM; in the test on SF-295 CNS, 34.5 µM; with SNB-19 CNS, 50.1 µM; with SNB-75 CNS, 37.5 µM; in the test with U251 CNS it was 35.5 µM.

On to `Clc1ccc(OCc2nnc3sc(-c4ccc(-c5ccc(Cl)cc5Cl)o4)nn23)c(Cl)c1`, for which the TGI in the test on A549 NSCLC was 46.8 µM; in the test on KM12 colon, over 100 µM; in the test with MDA-MB-231 breast it was 33.3 µM; in the test on MDA-MB-435, over 100 µM; with NCI/ADR-RES ovarian, 45.1 µM; in the test with RPMI-8226 leukemia, 57.2 µM. In addition, the TGI in the test with SF-268 CNS stood at 32.5 µM; in the test with SF-295 CNS, 33.6 µM; in the test on SNB-19 CNS, 56.6 µM; with SNB-75 CNS, 34.1 µM; in the test with U251 CNS it was 37.5 µM.

For the molecule `c1ccc2nc3[nH]c4ccccc4c3cc2c1`, the TGI worked out at 9.14 µM with A549 NSCLC; 1.81 µM with KM12 colon; 2.64 µM in the test with MDA-MB-231 breast; 1.97 µM in the test with MDA-MB-435; 8.28 µM in the test on NCI/ADR-RES ovarian; 2.53 µM with RPMI-8226 leukemia. The TGI in the test with SF-268 CNS was determined as 7.3 µM; in the test with SF-295 CNS, 2.24 µM; with SNB-19 CNS it was 4.43 µM; in the test on SNB-75 CNS it was 6.44 µM; with U251 CNS, 1.99 µM.

As for `COC(=O)C1=NN2c3ccccc3C(=O)OCCC2C1` (stereo not drawn), the TGI in the test on A549 NSCLC, in the test on KM12 colon, with MDA-MB-231 breast, in the test with MDA-MB-435, with NCI/ADR-RES ovarian and in the test on RPMI-8226 leukemia was over 100 µM throughout. The TGI with SF-268 CNS, with SF-295 CNS, with SNB-75 CNS and in the test with U251 CNS was over 100 µM throughout.

In the case of `OC1C(O)C(O)C(O)C(O)C1O` (stereo not drawn), the TGI in the test with A549 NSCLC, with MDA-MB-231 breast, with MDA-MB-435, in the test on NCI/ADR-RES ovarian, in the test on RPMI-8226 leukemia and in the test with SF-268 CNS was over 1000 µM in each case. Moreover, the TGI in the test on SNB-19 CNS, with SNB-75 CNS and in the test on U251 CNS was over 1000 µM in each case.

On to `Cc1cc2c(cc1O)CC[C@@H]1[C@@H]2CC[C@]2(C)[C@@H](O)CC[C@@H]12`, for which the TGI in the test with A549 NSCLC was over 100 µM; in the test on KM12 colon it was 15.7 µM; with MDA-MB-231 breast it was 21.8 µM; in the test on MDA-MB-435 it was 3.65 µM; in the test with NCI/ADR-RES ovarian, 27.2 µM; in the test on RPMI-8226 leukemia, 19.2 µM. Also, the TGI with SF-268 CNS amounted to 46.8 µM; in the test on SF-295 CNS, 20.3 µM; with SNB-19 CNS it was 33.1 µM; with SNB-75 CNS, 23.9 µM; in the test with U251 CNS, 18.2 µM. Further, the GI50 with MDA-MB-435 is 1.8 µM.

As to `COc1ccc(CNc2nc(NCc3ccc(OC)cc3)nc(Nc3ccccc3)n2)cc1`, the TGI is over 100 µM in the test with A549 NSCLC; 35.3 µM in the test with KM12 colon; over 100 µM in the test on MDA-MB-231 breast; 5.7 µM with MDA-MB-435; over 100 µM in the test with NCI/ADR-RES ovarian; 40.3 µM with RPMI-8226 leukemia. The TGI was over 100 µM in the test on SF-268 CNS; 8.83 µM with SF-295 CNS; over 100 µM in the test with SNB-19 CNS; over 100 µM in the test with SNB-75 CNS; over 100 µM in the test on U251 CNS.
